Measurements: patent US6492337B1, “Galactosylceramide, glucosylceramide, lactosylceramide, and specific catchers therefor for use in the prophylaxis or therapy of prediabetes, diabetes and/or associated complication” (A+ Science AB, priority 1997, dated 2002)

Assays:
[1] = test system: NOD mouse model of type 1 diabetes; experiment: Intrathymic injection in NOD mice, later diabetes incidence; format: in vivo
Description: The NOD mouse model is an animal model of type 1 diabetes. The mice develop spontaneously diabetes within 200 days of life with an incidence of 50% or more. In the present study the animals were examined daily and once a week checked for glucosuria. They were diagnosed as diabetic if their blood glucose values was higher than 200 mg glucose per 100 ml. When diagnosed as diabetics the animals were sacrificed. Otherwise the remaining non-diabetic animals were sacrificed at the end 5 of the study after 200 days of age.
Four groups of animals each containing between 30 and 40 animals were investigated: The animals were injected intrathymically when 3 weeks old. There was injected […] galactosylceramide in 100 μl vehicle (PBS). The control mice were treated with the 100 μl PBS alone. In another experiment liposome preparation of galactosylceramide was made using phosphatidylcholin and galactosylceramide. The control group was treated with phosphatidylcholin and PBS alone.

[2] = test system: human mononuclear cells (monocytes and T-cells); settings: compared to incubation with LPS and PHA without galactosylceramide; cited from earlier work

Substance: galactosylceramide
- mice that developed diabetes, two studies together ([1]; both studies pooled, 31 of 70 mice, PBS mice 57.4%): 44.3%
- time of diabetes development versus control mice ([1]; first study, pure form): occurred later than among the control mice
- mice that developed diabetes ([1]; first study, pure form in PBS, intrathymic injection at 3 weeks old, followed to 200 days of age, 17 of 37 mice, PBS control 56.8%): 45.9%
- IL-6 production [2]: increased
- TNF production [2]: increased
